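Grown in 96-well plates, cells were treated for 48 hours with each compound at five concentrations. Insufficient inhibition: endpoint recorded as highest concentration tested. Definition used: TGI = concentration required for complete inhibition of growth.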
What was measured:
Test in all cases: NCI anticancer screen, dose series, 48 h
UACC-62 melanoma = system: UACC-62 melanoma
MOLT-4 leukemia = system: MOLT-4 leukemia
HOP-62 NSCLC = system: HOP-62 NSCLC
MDA-N = system: MDA-N
SN12C renal = system: SN12C renal
SW-620 colon = system: SW-620 colon
SF-295 CNS = system: SF-295 CNS
A498 renal = system: A498 renal
OVCAR-3 ovarian = system: OVCAR-3 ovarian
COLO 205 colon = system: COLO 205 colon
NCI-H226 lung = system: NCI-H226 lung
U251 CNS = system: U251 CNS
NCI-H23 lung = system: NCI-H23 lung
SF-268 CNS = system: SF-268 CNS
MDA-MB-231 breast = system: MDA-MB-231 breast
OVCAR-4 ovarian = system: OVCAR-4 ovarian
OVCAR-5 ovarian = system: OVCAR-5 ovarian
TK-10 renal = system: TK-10 renal
M14 melanoma = system: M14 melanoma
SR leukemia = system: SR leukemia

Structure (SMILES)	TGI (UACC-62 melanoma) [µM]	TGI (MOLT-4 leukemia) [µM]	TGI (HOP-62 NSCLC) [µM]	TGI (MDA-N) [µM]	TGI (SN12C renal) [µM]	TGI (SW-620 colon) [µM]	TGI (SF-295 CNS) [µM]	TGI (A498 renal) [µM]	TGI (OVCAR-3 ovarian) [µM]	TGI (COLO 205 colon) [µM]	TGI (NCI-H226 lung) [µM]	TGI (U251 CNS) [µM]	TGI (NCI-H23 lung) [µM]	TGI (SF-268 CNS) [µM]	TGI (MDA-MB-231 breast) [µM]	TGI (OVCAR-4 ovarian) [µM]	TGI (OVCAR-5 ovarian) [µM]	TGI (TK-10 renal) [µM]	TGI (M14 melanoma) [µM]	TGI (SR leukemia) [µM]
CC(C)(C)c1cc(C(C)(C)C)c(SS(=O)(=O)O)c(O)c1O	55.2	0.219	> 100	> 100	> 100	> 100	> 100	> 100	> 100	> 100	> 100	> 100	> 100	> 100	> 100	> 100	> 100	> 100	> 100	
COC(=O)N1CCc2c(nc(N(C)CCO)[nH]c2=O)C1	> 100	> 100	> 100		> 100	> 100	> 100	> 100	> 100	> 100	> 100	> 100	> 100	> 100			> 100	> 100	> 100	> 100
CC(=O)OC[C@]1(O)CC[C@@]23CC1C[C@@H]2CCC1C(C)(C)CCC[C@@]13C (some centres undefined)	26.2	15.8	32.2		24.7	22.5	32		30.8	33.1	32.7	27.1	26.4	30.4		30	23.5	26.2	26.9	23.6
O=C1CCC(=O)N1Cc1ccccc1N=[N+]([O-])c1ccccc1CN1C(=O)CCC1=O	> 100	> 100	> 100		> 100	> 100	> 100		> 100	> 100		> 100	> 100	> 100		> 100	> 100	> 100	> 100	> 100
CNC(=O)c1n[nH]nc1Sc1c([N+](=O)[O-])ncn1C	> 100	> 100	> 100		> 100	> 100	> 100	> 100	> 100	> 100		> 100	> 100	> 100	> 100	> 100	> 100	> 100	> 100	
Nc1nc(Cl)c2ncn(Cc3ccc(CCl)cc3)c2n1	8.18	> 100	27.3		27.1	13.8	27.8	84.6	5.5	13.4	37.1	12	30.4	8.38	34.6	30.1	14.9	40.5	37.7	9.37
CC(C)(C)OC(=O)c1cnc(Cl)cn1	> 100	> 100	> 100		> 100	> 100	> 100			> 100	> 100	> 100	55.4	> 100	> 100	91.9	> 100	> 100	> 100	> 100
CCN=C(NNc1ccc([N+](=O)[O-])cc1)P(=O)(OC(C)C)OC(C)C	> 100	> 100	> 100		> 100	> 100		> 100	> 100	> 100	> 100	> 100	> 100	> 100		> 100	> 100	> 100	> 100	> 100
Nc1c2c(=O)[nH]c(=O)c2c(N)c2c(=O)c3ccccc3c(=O)c12	3.25	> 26.4	6.85	0.448	3.17	4.65	3.07	2.85	4.31	1.85	4.96	> 90	3.17	15.5	> 29.5	3.39	3.42	40.7	0.88	
COc1cc(C2c3cc(O)c(OC)cc3C3OCC2C3CO)ccc1O (centres undefined)	> 100	> 100	> 100			> 100	> 100	> 100	> 100	> 100	> 100	> 100	> 100	> 100	> 100	> 100	> 100	> 100	> 100	> 100
NC(=S)N/N=C(\Cc1nc2ccc(Cl)cc2[nH]c1=O)C(=O)Nc1ccc(Cl)cc1	> 100	> 100	> 100		> 100	> 100	> 100		> 100	> 100	> 100	> 100	> 100	> 100	> 100	> 100	> 100	> 100	> 100	
COc1cccc(NC(=O)/C(CC(=O)CC(c2ccccc2)c2c(O)c3ccccc3oc2=O)=N\NC(C)(C)C)c1OC (centres undefined)	> 100	> 100	> 100			> 100	> 100	> 100	> 100	> 100		> 100		> 100		> 100	> 100	> 100	> 100	
O=C(COc1ccc(OCC(=O)N2C(=O)CSC2=Nc2ccccc2)cc1)N1C(=O)CSC1=Nc1ccccc1	36	> 100		79.7	> 100	> 100	> 100	> 100		96.2	> 100	> 100	> 100	> 100	90.1	> 100	91.9	> 100	> 100	

Source: PubChem BioAssay (NCI)
